# From patent US11414416B1, “Compounds and uses thereof” (Foghorn Therapeutics Inc., priority 2019, dated 2022)
# Molecular target: Nanoluciferase-BRD9 fusion protein (Homo sapiens (Human), UniProt Q9H8M2)
# Assay: SYO1 BRD9 NanoLuc degradation assay
# Format: cell-based
# Details: Table 5A; SYO-1 cells expressing 3×FLAG-NLuc-BRD9, 6 hours; read-out: SYO1 BRD9-NanoLuc degradation IC50
# Procedure: Procedure: A stable SYO-1 cell line expressing 3×FLAG-NLuc-BRD9 was generated. On day 0 cells were seeded in 30 μL media into each well of 384-well cell culture plates. The seeding density was 8000 cells/well. […] Subsequently plates were incubated for 6 hours in a standard tissue culture incubator and equilibrated at room temperature for 15 minutes. Nanoluciferase activity was measured by adding 15 μL of freshly prepared Nano-Glo Luciferase Assay Reagent (Promega N1130), shaking the plates for 10 minutes and reading the bioluminescence using an EnVision reader.
# DMSO treated cells are employed as High Control (HC) and 1 μM of a known BRD9 degrader standard treated cells are employed as Low Control (LC).
# Nanoluciferase-BRD9 fusion protein, sequence (Q9H8M2 whole entry, the tested form may be a part): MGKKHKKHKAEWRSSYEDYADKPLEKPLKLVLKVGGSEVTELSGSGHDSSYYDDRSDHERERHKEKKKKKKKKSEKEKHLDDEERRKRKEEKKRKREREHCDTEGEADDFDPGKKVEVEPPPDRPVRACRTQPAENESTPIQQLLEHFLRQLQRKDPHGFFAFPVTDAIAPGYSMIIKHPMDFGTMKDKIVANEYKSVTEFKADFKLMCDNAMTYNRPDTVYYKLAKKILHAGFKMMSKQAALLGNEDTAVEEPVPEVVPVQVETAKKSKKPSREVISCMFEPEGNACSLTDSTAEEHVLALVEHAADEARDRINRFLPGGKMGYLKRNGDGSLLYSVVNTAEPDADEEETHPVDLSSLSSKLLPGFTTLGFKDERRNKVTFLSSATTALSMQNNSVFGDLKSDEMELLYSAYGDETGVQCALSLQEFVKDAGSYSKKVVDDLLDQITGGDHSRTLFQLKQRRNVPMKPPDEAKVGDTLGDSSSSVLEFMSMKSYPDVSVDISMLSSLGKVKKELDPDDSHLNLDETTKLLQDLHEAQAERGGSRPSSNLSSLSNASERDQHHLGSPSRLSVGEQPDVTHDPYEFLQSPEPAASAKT
row,DC50 [nM],Structure (SMILES)
1,100 to 1000,COc1cc(-c2cn(C)c(=O)c3cnccc23)cc(OC)c1CN1CC(CC(=O)N2CC3(CCN(c4ccc5c(c4)C(=O)N(C4CCC(=O)NC4=O)C5=O)C3)C2)C1 (stereo not drawn) [Compound D77]
2,< 10,COc1cc(-c2cn(C)c(=O)c3cnccc23)cc(OC)c1CN1CC2(CC(C(=O)NCCCCCCCCNc3cccc4c3C(=O)N(C3CCC(=O)NC3=O)C4=O)C2)C1 (stereo not drawn) [Compound D20]
3,10 to 100,COc1cc(-c2cn(C)c(=O)c3cnccc23)cc(OC)c1CN1CCC2(CC1)CC(NC(=O)CCOCCOc1cccc3c1C(=O)N(C1CCC(=O)NC1=O)C3=O)C2 (stereo not drawn) [Compound D82]

# Same assay, conditions: Table 5B; SYO-1 cells expressing 3×FLAG-NLuc-BRD9, 6 hours; read-out: SYO1 BRD9-NanoLuc degradation IC50
row,Structure (SMILES),DC50 [nM]
1,COc1cc(-c2cc(C)c(=O)n(C)c2)cc(OC)c1CN1CCC2C(C1)CN2c1ccc2c(c1)C(=O)N(C1CCC(=O)NC1=O)C2=O (stereo not drawn) [Compound D338],< 10
2,COc1cc(-c2cc(C)c(=O)n(C)c2)cc(OC)c1CN1CCN(c2ccc3c(c2)C(=O)N(C2CCC(=O)NC2=O)C3=O)CC1 (stereo not drawn) [Compound D330],< 10
3,COc1cc(-c2cn(C)c(=O)c3cnccc23)cc(OC)c1Cn1cc(COCCOc2ccc3c(c2)C(=O)N(C2CCC(=O)NC2=O)C3=O)nn1 (stereo not drawn) [Compound D303],10 to 100
4,COc1cc(-c2cc(C)c(=O)n(C)c2C)c(OC)cc1CN1CC(CN2CCC3(CC2)CN(c2ccc4c(c2)C(=O)N(C2CCC(=O)NC2=O)C4=O)C3)C1 (stereo not drawn) [Compound D359],< 10
5,CNC(=O)N(C)Cc1cc(-c2cc(OC)c(CN3CC(CN4CCC5(CC4)CN(c4ccc6c(c4)C(=O)N(C4CCC(=O)NC4=O)C6=O)C5)C3)c(OC)c2)cn(C)c1=O (stereo not drawn) [Compound D355],> 1000
6,COc1cc(-c2cn(C)c(=O)c3cnccc23)cc(OC)c1CN(C)C(=O)CCCCN1CCCC2(CC(Oc3ccc4c(c3)C(=O)N([C@H]3CCC(=O)NC3=O)C4=O)C2)C1 (stereo partly drawn) [Compound D262],< 10
7,COc1cc(-c2cn(C)c(=O)c3cnccc23)cc(OC)c1CN(C)C(=O)CCCCN1CC(Oc2ccc3c(c2)C(=O)N(C2CCC(=O)NC2=O)C3=O)C1 (stereo not drawn) [Compound D229],< 10
8,COc1cc(-c2cn(C)c(=O)c3cnccc23)cc(OC)c1CN(C)CCN(C)CCNC(=O)COc1ccc2c(c1)C(=O)N(C1CCC(=O)NC1=O)C2=O (stereo not drawn) [DD2],100 to 1000
9,COc1cc(-c2cn(C)c(=O)c3cnccc23)cc(OC)c1CN(C)CCOCCn1cc(COc2ccc3c(c2)C(=O)N(C2CCC(=O)NC2=O)C3=O)nn1 (stereo not drawn) [Compound D288],< 10
10,COc1cc(-c2cn(C)c(=O)c3cnccc23)cc(OC)c1CN(C)CCCn1cc(COc2ccc3c(c2)C(=O)N(C2CCC(=O)NC2=O)C3=O)nn1 (stereo not drawn) [Compound D282],100 to 1000
11,COc1cc(-c2cn(C)c(=O)c3cnccc23)cc(OC)c1CN1CC(n2cc(CN3CC(Oc4ccc5c(c4)C(=O)N(C4CCC(=O)NC4=O)C5=O)C3)nn2)C1 (stereo not drawn) [Compound D300],< 10
12,COc1cc(-c2cn(C)c(=O)c3cnccc23)cc(OC)c1CN(C)CCCCN1CC(Oc2ccc3c(c2)C(=O)N(C2CCC(=O)NC2=O)C3=O)C1 (stereo not drawn) [Compound D249],10 to 100
13,COc1cc(-c2cn(C)c(=O)c3cnccc23)cc(OC)c1CN(C)CCOCCn1cc(CCOc2ccc3c(c2)C(=O)N(C2CCC(=O)NC2=O)C3=O)nn1 (stereo not drawn) [Compound D292],100 to 1000

# The remaining lines, values ahead:
row,DC50 [nM],Structure (SMILES)
1,< 10,COc1cc(-c2cn(C)c(=O)c3cnccc23)cc(OC)c1CN1CC2(CCN(CCCC#Cc3ccc4c(c3)C(=O)N(C3CCC(=O)NC3=O)C4=O)C2)C1 (stereo not drawn) [Compound D211]
2,< 10,COc1cc(-c2cn(C)c(=O)c3cnccc23)cc(OC)c1CN1CC(n2cc(COC3CCN(c4ccc5c(c4)C(=O)N(C4CCC(=O)NC4=O)C5=O)CC3)nn2)C1 (stereo not drawn) [Compound D302]
3,100 to 1000,COc1cc(-c2cn(C)c(=O)c3cnccc23)cc(OC)c1CN1CC(CC(=O)N2CCCC3(CC(Oc4ccc5c(c4)C(=O)N([C@H]4CCC(=O)NC4=O)C5=O)C3)C2)C1 (stereo partly drawn) [Compound D265]
4,< 10,COc1cc(-c2cn(C)c(=O)c(C)c2C)cc(OC)c1CN1CCN(CCC2CCN(c3ccc4c(c3)CN(C3CCC(=O)NC3=O)C4=O)CC2)CC1 (stereo not drawn) [Compound D362]
5,< 10,COc1cc(-c2cn(C)c(=O)c3cnccc23)cc(OC)c1CN1CCN(CCCC#Cc2ccc3c(c2)C(=O)N(C2CCC(=O)NC2=O)C3=O)CC1 (stereo not drawn) [Compound D214]
6,< 10,COc1cc(-c2cc(C)c(=O)n(C)c2)cc(OC)c1CN1CCC2(CC1)CN(c1ccc3c(c1)C(=O)N(C1CCC(=O)NC1=O)C3=O)C2 (stereo not drawn) [Compound D331]
7,10 to 100,COc1cc(-c2cn(C)c(=O)c3cnccc23)cc(OC)c1CN1CC(CC(=O)N2CC3(CC(Oc4ccc5c(c4)C(=O)N(C4CCC(=O)NC4=O)C5=O)C3)C2)C1 (stereo not drawn) [Compound D234]
8,< 10,COc1cc(-c2cn(C)c(=O)c3cnccc23)cc(OC)c1CN(C)C(=O)CCCCNC1CCC12CN(c1ccc3c(c1)C(=O)N(C1CCC(=O)NC1=O)C3=O)C2 (stereo not drawn) [Compound D255]
9,< 10,COc1cc(-c2cn(C)c(=O)c3cnccc23)cc(OC)c1CN1CCC(n2cc([C@@H](C)Oc3ccc4c(c3)C(=O)N(C3CCC(=O)NC3=O)C4=O)nn2)CC1 (stereo partly drawn) [Compound D319]
10,10 to 100,COc1cc(-c2cn(C)c(=O)c3cnccc23)cc(OC)c1CN1CCC2(CC1)CN(CCCC#Cc1ccc3c(c1)C(=O)N(C1CCC(=O)NC1=O)C3=O)C2 (stereo not drawn) [Compound D196]
11,< 10,COc1cc(-c2cn(C)c(=O)cc2C)cc(OC)c1CN1CC(CN2CCC3(CC2)CN(c2ccc4c(c2)C(=O)N(C2CCC(=O)NC2=O)C4=O)C3)C1 (stereo not drawn) [Compound D349]
12,< 10,COc1cc(-c2cn(C)c(=O)c3cnccc23)cc(OC)c1CN1CCC(CN2CCC3(CC2)CC(Oc2ccc4c(c2)C(=O)N(C2CCC(=O)NC2=O)C4=O)C3)CC1 (stereo not drawn) [Compound D304]
13,< 10,COc1cc(-c2cn(C)c(=O)c3cnccc23)cc(OC)c1CN1CC2(CCN(C(=O)CCC#Cc3ccc4c(c3)C(=O)N(C3CCC(=O)NC3=O)C4=O)CC2)C1 (stereo not drawn) [Compound D219]
14,< 10,COc1cc(-c2cn(C)c(=O)c3cnccc23)cc(OC)c1CN(C)C(=O)CCCCN1CC2(CCN(c3ccc4c(c3)C(=O)N(C3CCC(=O)NC3=O)C4=O)CC2)C1 (stereo not drawn) [Compound D201]
15,100 to 1000,COc1cc(-c2cn(C)c(=O)c3cnccc23)cc(OC)c1CN1CC(CCN2CCC3(CC2)CC(Oc2ccc4c(c2)C(=O)N(C2CCC(=O)NC2=O)C4=O)C3)C1 (stereo not drawn) [Compound D305]
16,< 10,COc1cc(-c2cn(C)c(=O)c3cncn23)cc(OC)c1CN1CC(CN2CCC3(CC2)CN(c2ccc4c(c2)CN(C2CCC(=O)NC2=O)C4=O)C3)C1 (stereo not drawn) [Compound D363]

# Same assay, conditions: Table 5C; SYO-1 cells expressing 3×FLAG-NLuc-BRD9, 6 hours
row,IC50 [nM],Structure (SMILES)
1,> 1000,C/C=C/Cn1cc(-c2ccc(CN3CCN(S(=O)(=O)c4ccc5c(c4)C(=O)N(C4CCC(=O)NC4=O)C5)CC3)c(Cl)c2)n2cncc2c1=O (stereo not drawn) [Compound D464]

# Same assay, conditions: Table 5C; SYO-1 cells expressing 3×FLAG-NLuc-BRD9, 6 hours; read-out: SYO1 BRD9-NanoLuc degradation IC50
row,Structure (SMILES),DC50 [nM]
1,COc1cc(-c2cc(C(F)F)c(=O)n(C)c2)cc(OC)c1CN1CCC(C#Cc2ccc3c(c2)C(=O)N(C2CCC(=O)NC2=O)C3)CC1 (stereo not drawn) [Compound D444],< 10
2,COc1cc(-c2c(C)n(C)c(=O)c3[nH]c(C)cc23)cc(OC)c1CN1CCC2(CC1)CN(c1ccc3c(c1)C(=O)N(C1CCC(=O)NC1=O)C3)C2 (stereo not drawn) [Compound D437],> 1000
3,C/C=C/Cn1cc(-c2ccc(CN3CCC4(CC3)CN(c3ccc5c(c3)C(=O)N(C3CCC(=O)NC3=O)C5)C4)c(Cl)c2)n2cncc2c1=O (stereo not drawn) [Compound D465],< 10
4,Cc1cc(-c2ccc(N3CCN(c4ccc5c(c4)C(=O)N(C4CCC(=O)NC4=O)C5)CC3)cc2)cn(C)c1=O (stereo not drawn) [Compound D459],< 10

# The next lines start with the values.
row,DC50 [nM],Structure (SMILES)
1,< 10,COc1cc(-c2cn(C)c(=O)c3cnccc23)cc(OC)c1CN1CCC2(CC1)CN(c1ccc3c(c1)C(=O)N(C1CC(=O)NC1=O)C3)C2 (stereo not drawn) [Compound D382]
2,< 10,CCn1cc2c(=O)n(C)cc(-c3cc(OC)c(CN4CCC5(CC4)CN(c4ccc6c(c4)C(=O)N(C4CCC(=O)NC4=O)C6)C5)c(OC)c3)c2n1 (stereo not drawn) [Compound D417]
3,< 10,COc1cc(-c2cn(C)c(=O)c3cn(C)nc23)cc(OC)c1CN1CCC2(CC1)CN(c1ccc3c(c1)C(=O)N(C1CCC(=O)NC1=O)C3=O)C2 (stereo not drawn) [Compound D415]
4,> 1000,COc1cc(-c2ccn3c(=O)n(C)ccc23)cc(OC)c1CN1CCC2(CC1)CN(c1ccc3c(c1)C(=O)N(C1CCC(=O)NC1=O)C3)C2 (stereo not drawn) [Compound D435]
5,< 10,COc1cc(-c2cc(C(F)F)c(=O)n(C)c2C)cc(OC)c1CN1CCC2(C1)CN(c1ccc3c(c1)C(=O)N(C1CCC(=O)NC1=O)C3)C2 (stereo not drawn) [Compound D409]
6,< 10,COc1cc(-c2cn(C)c(=O)c3[nH]c(C)cc23)cc(OC)c1CN1CCC2(CC1)CN(c1ccc3c(c1)C(=O)N(C1CCC(=O)NC1=O)C3)C2 (stereo not drawn) [Compound D422]
7,< 10,COc1cc(-c2cn(C)c(=O)c3cnccc23)cc(OC)c1CN1CCC(CN2CCC3(CN(c4ccc5c(c4)CN(C4CCC(=O)NC4=O)C5=O)C3)C(F)(F)C2)CC1 (stereo not drawn) [Compound D379]
8,< 10,COc1cc(-c2cn(C)c(=O)c3cccn23)cc(OC)c1CN1CCC2(CC1)CN(c1ccc3c(c1)C(=O)N(C1CCC(=O)NC1=O)C3)C2 (stereo not drawn) [Compound D431]
9,< 10,COc1cc(-c2cn(C)c(=O)c3cnccc23)cc(OC)c1CN1CC(Oc2ccc3c(c2)CN(C2CCC(=O)NC2=O)C3=O)C1 (stereo not drawn) [Compound D375]
10,< 10,COc1cc(-c2cc(C(F)F)c(=O)n(C)c2)cc(OC)c1CN1CCN(CCC2CCN(c3ccc4c(c3)C(=O)N(C3CCC(=O)NC3=O)C4=O)CC2)CC1 (stereo not drawn) [Compound D398]
11,100 to 1000,COc1cc(-c2cn(C)c(=O)c3nccn23)cc(OC)c1CN1CCC2(CC1)CN(c1ccc3c(c1)C(=O)N(C1CCC(=O)NC1=O)C3)C2 (stereo not drawn) [Compound D447]
